We go through 14 molecules from US6177438A, “Morphinan derivatives and pharmaceutical use thereof” (priority 1993, dated 2001).

Counter-ions that a name gives are not always drawn.

In data set [1] the test system is acetic acid-induced writhing in ddy mice. In words: animal or person. As to conditions: Mus musculus, sc, s.c. 15 minutes before acetic acid, read-out: ED50. The data set is classed as in vivo, 5 week old ddy mice. Here is the method:
5 week old ddy mice were used in this test. After intraperitoneal administration of 0.1 ml of 0.6% aqueous acetic acid per 10 g of body weight, the number of writhing reactions that occurred in 10 minutes starting 10 minutes after administration was evaluated for the indicator. The test drug was administered subcutaneously into the backs of the animals 15 minutes before administration of acetic acid.

The test system of data set [2] is cultured nerve cells (cerebral cortex). In words: cells. As to conditions: Rattus norvegicus, Cerebral cortex neuron, 24 h, read-out: ED50 (protection against glutamic acid toxicity).
The test system is the same in data set [3]. As to conditions: 10 mM glutamic acid, 24 hours.
A short description of data set [4]: Diuretic action (urine output for 5 hours after physiological saline loading in rats). To be noted: Rattus norvegicus, sc, 5 hours after saline 20 ml/kg p.o.; for ED (200% urine output): dose giving urine output of 200 (non-dosed group = 100); for ED (500% urine output): dose giving urine output of 500 (non-dosed group = 100). The data set is classed as in vivo, male Wistar rats. Put shortly: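 Doses reported as ED200/ED500, i.e. those raising 5 h urine output to 200 or 500 versus undosed rats set at 100. Subcutaneous dosing preceded an oral 20 ml/kg saline load by 30 min; male Wistar rats, 7-8 weeks, deprived of water 1 h beforehand.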

The next data set addresses T1, κ receptor (Mus musculus, UniProt P33534).
T1 construct: from tissue; host or cells: mouse (male ddy) vas deferens
In words: Opioid activity test using an extracted mouse vas deferens preparation, Ke with norBNI. Also noted: species or system male ddy mouse. To be noted: for receptor selectivity of agonist (κ): in words; for Ke, norBNI: κ, norBNI added.

The target of the next data set is T2, μ receptor (Mus musculus, UniProt P42866).
T2 construct: naloxone as mu antagonist (printed 'agonist')
In words: Opioid activity test using an extracted mouse vas deferens preparation, Ke with naloxone. To be noted: naloxone added. Also on record: species or system male ddy mouse.

The subject of data set [5] is extracted mouse vas deferens preparation. In words: Opioid activity test using an extracted mouse vas deferens preparation (suppression of electrically induced contractions). Also noted: species or system male ddy mouse. To be noted: electrical stimulus 0.1 Hz, 37° C. The procedure, abridged:
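Male ddY mouse vas deferens in Krebs-Henseleit at 37° C, 5% CO2/95% O2, field-stimulated at 0.1 Hz, 5.0 ms; isometric contractions recorded. After adding naloxone, NTI or norBNI, test compound was added cumulatively after ~20 min; Ke derived from the difference in agonist efficacies.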

The next data set has as its target T3, δ receptor (Mus musculus, UniProt P32300).
T3 construct: The vas deferens extracted from the animal was suspended in a Magnus tube; from tissue; host or cells: mouse (male ddy) vas deferens
Also noted: species or system male ddy mouse. As to conditions: mouse vas deferens, δ, NTI added.

T1 sequence (P33534 whole entry): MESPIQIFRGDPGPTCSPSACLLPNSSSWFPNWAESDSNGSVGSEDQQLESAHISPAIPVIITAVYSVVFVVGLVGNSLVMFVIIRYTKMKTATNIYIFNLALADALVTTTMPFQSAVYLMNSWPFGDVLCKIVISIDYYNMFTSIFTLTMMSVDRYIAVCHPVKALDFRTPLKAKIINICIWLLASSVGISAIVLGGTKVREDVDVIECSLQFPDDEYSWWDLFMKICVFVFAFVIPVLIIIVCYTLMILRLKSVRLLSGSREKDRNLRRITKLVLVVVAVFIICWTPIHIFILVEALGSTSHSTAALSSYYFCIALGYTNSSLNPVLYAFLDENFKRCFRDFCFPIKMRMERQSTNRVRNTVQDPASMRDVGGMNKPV
T3 sequence (P32300 whole entry): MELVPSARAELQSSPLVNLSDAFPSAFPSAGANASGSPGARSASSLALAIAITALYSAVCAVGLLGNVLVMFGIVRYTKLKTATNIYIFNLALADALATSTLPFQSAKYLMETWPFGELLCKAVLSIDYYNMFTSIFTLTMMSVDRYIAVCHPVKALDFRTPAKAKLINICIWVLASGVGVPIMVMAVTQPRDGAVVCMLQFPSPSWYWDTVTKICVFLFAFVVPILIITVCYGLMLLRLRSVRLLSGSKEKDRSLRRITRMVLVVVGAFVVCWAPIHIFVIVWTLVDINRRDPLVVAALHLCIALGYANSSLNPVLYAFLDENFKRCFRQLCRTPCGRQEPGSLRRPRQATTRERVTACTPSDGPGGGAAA
T2 sequence (P42866 whole entry): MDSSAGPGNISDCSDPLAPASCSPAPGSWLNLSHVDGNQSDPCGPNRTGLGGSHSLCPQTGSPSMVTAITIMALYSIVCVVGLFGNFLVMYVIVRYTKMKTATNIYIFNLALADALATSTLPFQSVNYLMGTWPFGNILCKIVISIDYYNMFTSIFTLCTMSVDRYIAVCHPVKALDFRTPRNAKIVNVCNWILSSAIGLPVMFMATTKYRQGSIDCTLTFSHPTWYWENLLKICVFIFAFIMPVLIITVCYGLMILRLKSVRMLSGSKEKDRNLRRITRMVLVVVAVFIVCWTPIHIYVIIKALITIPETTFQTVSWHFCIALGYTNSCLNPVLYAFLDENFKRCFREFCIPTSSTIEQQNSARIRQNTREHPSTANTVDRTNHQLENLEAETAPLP

The term ED50 denotes the dose at which the effect has come halfway, by size or by number of responders. For the molecule `CN(C(=O)C1CCCCC1)[C@H]1CC[C@@]2(O)[C@H]3Cc4ccc(O)c5c4[C@@]2(CCN3CC2CC2)[C@H]1O5` [Compound 33, 17-cyclopropylmethyl-3,14β-dihydroxy-4,5α-epoxy-6α-(N-methylcyclohexylcarboxyamido)morphinan.cndot.hydrochloride], the median effective dose (ED50) in data set [1] was found to be 0.08 mg/kg. Besides, in data set [2], the EC50 is 3530 nM. Further, the “Protective action against cytotoxicity caused by glutamic acid (in words)” value (“Protective action” below) in data set [3] is “clearly demonstrated action that protects nerve cells from cytotoxicity caused by glutamic acid”.

The IC50 is the concentration needed to halve the response being measured. In data set [4], `CCC/C=C/C(=O)N(C)[C@@H]1CC[C@@]2(O)[C@H]3Cc4ccc(O)c5c4[C@@]2(CCN3CC2CC2)[C@H]1O5` [Compound 100, 17-cyclopropylmethyl-3,14β-dihydroxy-4,5α-epoxy-6β-(N-methyl-trans-2-hexenamido)morphinan.cndot.tartrate] had an ED (200% urine output) of 0.0159 mg/kg and an ED (500% urine output) of 0.811 mg/kg. On κ receptor, the “receptor selectivity of agonist (κ)” value is “selective agonists for κ receptors” and the “Ke, norBNI” value was 0.0717 nM. Also, in data set [1], the ED50 came out at 0.024 mg/kg. Further, the “Ke, Naloxone” value at μ receptor worked out at 1797 nM. In addition, the EC50 in data set [2] is 1740 nM. In data set [5], 0.647 nM corresponded to half-maximal inhibition (IC50). Moreover, in data set [3], the “Protective action” value is listed as “clearly demonstrated action that protects nerve cells from cytotoxicity caused by glutamic acid”.

For `CN(C(=O)Cc1ccc2ccccc2c1)[C@@H]1CC[C@@]2(O)[C@H]3Cc4ccc(O)c5c4[C@@]2(CCN3CC2CC2)[C@H]1O5` [Compound 112, 17-cyclopropylmethyl-3,14β-dihydroxy-4,5α-epoxy-6β-(N-methyl-2-naphthylacetamido)morphinan.cndot.hydrochloride], the EC50 in data set [2] turned out to be 4240 nM. In addition, the “Protective action” value in data set [3] is given as “clearly demonstrated action that protects nerve cells from cytotoxicity caused by glutamic acid”.

Take `CN(C(=O)c1ccccc1)[C@H]1CC[C@@]2(O)[C@H]3Cc4ccc(O)c5c4[C@@]2(CCN3CC2CC2)[C@H]1O5` [Compound 34, 17-cyclopropylmethyl-3,14β-dihydroxy-4,5α-epoxy-6α-(N-methylbenzamido)morphinan.cndot.hydrochloride]: in data set [1], the ED50 stood at 0.21 mg/kg. Also, the EC50 in data set [2] was 180 nM. The “Protective action” value in data set [3] is “clearly demonstrated action that protects nerve cells from cytotoxicity caused by glutamic acid”.

In data set [4], `CN(C(=O)CCc1ccccc1)[C@@H]1CC[C@@]2(O)[C@H]3Cc4ccc(O)c5c4[C@@]2(CCN3CC2CC2)[C@H]1O5` [Compound 57, 17-cyclopropylmethyl-3,14β-dihydroxy-4,5α-epoxy-6β-(N-methyl-3-phenylpropionamido)morphinan.cndot.hydrochloride] returned an ED (200% urine output) of 0.0424 mg/kg and an ED (500% urine output) of 1.26 mg/kg. At κ receptor, the “receptor selectivity of agonist (κ)” value is “selective agonists for κ receptors” and the “Ke, norBNI” value is listed as 0.0124 nM. Further, on δ receptor, the “Ke, NTI” value is on record as 747 nM. Also, the 50% effective dose (ED50) in data set [1] is 0.04 mg/kg. Further, the EC50 in data set [2] came out at 15300 nM. Moreover, half-maximal inhibition in data set [5] (IC50) required 0.0254 nM. In addition, the “Protective action” value in data set [3] is “clearly demonstrated action that protects nerve cells from cytotoxicity caused by glutamic acid”.

Turning to `CN(C(=O)COc1ccccc1)[C@@H]1CC[C@@]2(O)[C@H]3Cc4ccc(O)c5c4[C@@]2(CCN3CC2CC2)[C@H]1O5` [Compound 58, 17-cyclopropylmethyl-3,14β-dihydroxy-4,5α-epoxy-6β-(N-methylphenoxyacetamido)morphinan.cndot.tartrate], the ED50 in data set [1] stood at 0.19 mg/kg. Moreover, the EC50 in data set [2] was 16700 nM. Further, the “Protective action” value in data set [3] was “clearly demonstrated action that protects nerve cells from cytotoxicity caused by glutamic acid”.

In data set [4], `CN(C(=O)OCc1ccccc1)[C@@H]1CC[C@@]2(O)[C@H]3Cc4ccc(O)c5c4[C@@]2(CCN3CC2CC2)[C@H]1O5` [Compound 56, 17-cyclopropylmethyl-3,14β-dihydroxy-4,5α-epoxy-6β-(N-methylbenzyloxycarbamido)morphinan.cndot.hydrochloride] displayed an ED (200% urine output) of 0.0028 mg/kg and an ED (500% urine output) of 0.0518 mg/kg. Further, the ED50 in data set [1] was determined as 0.00802 mg/kg. For the same molecule, the EC50 in data set [2] was 5230 nM. In data set [3], the “Protective action” value was “clearly demonstrated action that protects nerve cells from cytotoxicity caused by glutamic acid”.

With `CO[C@@H](C(=O)N(C)[C@H]1CC[C@@]2(O)[C@H]3Cc4ccc(O)c5c4[C@@]2(CCN3CC2CC2)[C@H]1O5)c1ccccc1` [Compound 30, 17-cyclopropylmethyl-3,14β-dihydroxy-4,5α-epoxy-6α-[(R)-N-methylmethoxyphenylacetamido]morphinan.cndot.hydrochloride], the EC50 in data set [2] came out at 7950 nM. Moreover, the “Protective action” value in data set [3] is recorded as “clearly demonstrated action that protects nerve cells from cytotoxicity caused by glutamic acid”.

In data set [4], `CN(C(=O)CCCc1ccccc1)[C@H]1CC[C@@]2(O)[C@H]3Cc4ccc(O)c5c4[C@@]2(CCN3CC2CC2)[C@H]1O5` [Compound 35, 17-cyclopropylmethyl-3,14β-dihydroxy-4,5α-epoxy-6α-(N-methyl-4-phenylbutyramido)morphinan.cndot.hydrochloride] registered an ED (200% urine output) of 0.0245 mg/kg and an ED (500% urine output) of 5.19 mg/kg. Further, the ED50 in data set [1] worked out at 0.026 mg/kg. In addition, the EC50 in data set [2] worked out at 640 nM. Besides, in data set [3], the “Protective action” value is “clearly demonstrated action that protects nerve cells from cytotoxicity caused by glutamic acid”.

In data set [4], `CN(C(=O)Cc1cccc(C(F)(F)F)c1)[C@H]1CC[C@@]2(O)[C@H]3Cc4ccc(O)c5c4[C@@]2(CCN3CC2CC2)[C@H]1O5` [Compound 108, 17-cyclopropylmethyl-3,14β-dihydroxy-4,5α-epoxy-6α-(N-methyl-3-trifluoromethylphenylacetamido)morphinan.cndot.hydrochloride] came in with an ED (200% urine output) of 0.021 mg/kg and an ED (500% urine output) of 5.11 mg/kg. In data set [1], the ED50 worked out at 0.0064 mg/kg. The EC50 in data set [2] worked out at 250 nM. Also, the “Protective action” value in data set [3] is reported as “clearly demonstrated action that protects nerve cells from cytotoxicity caused by glutamic acid”.

Turning to `CN(C(=O)Cc1ccc(Cl)c(Cl)c1)[C@@H]1CC[C@@]2(O)[C@H]3Cc4ccc(O)c5c4[C@@]2(CCN3CC2CC2)[C@H]1O5` [Compound 53, 17-cyclopropylmethyl-4,5α-epoxy-3,14β-dihydroxy-6β-(N-methyl-3,4-dichlorophenylacetoamido)morphinan.cndot.hydrochloride], in data set [4], the ED (200% urine output) is 0.135 mg/kg and the ED (500% urine output) worked out at 0.658 mg/kg. Besides, at κ receptor, the “receptor selectivity of agonist (κ)” value was “selective agonists for κ receptors” and the “Ke, norBNI” value came out at 0.21 nM. Further, at δ receptor, the “Ke, NTI” value is listed as 1676 nM. Besides, in data set [1], the median effective dose (ED50) was 0.46 mg/kg. In addition, the EC50 in data set [2] was found to be 2510 nM. The IC50 in data set [5] was found to be 10.3 nM. For the same molecule, the “Protective action” value in data set [3] is listed as “clearly demonstrated action that protects nerve cells from cytotoxicity caused by glutamic acid”.

With `C[C@H](C(=O)N(C)[C@H]1CC[C@@]2(O)[C@H]3Cc4ccc(O)c5c4[C@@]2(CCN3CC2CC2)[C@H]1O5)c1ccccc1` [Compound 32, 17-cyclopropylmethyl-4,5α-epoxy-3,14β-dihydroxy-6α-[(S)-N-methyl-2-phenylpropionamido]morphinan.cndot.tartrate], the ED50 in data set [1] was found to be 0.29 mg/kg. Moreover, the EC50 in data set [2] is 2140 nM. Besides, the “Protective action” value in data set [3] was “clearly demonstrated action that protects nerve cells from cytotoxicity caused by glutamic acid”.

Take `CN(C(=O)Cc1ccccc1)[C@H]1CC[C@@]2(O)[C@H]3Cc4ccc(O)c5c4[C@@]2(CCN3CC2CC2)[C@H]1O5` [Compound 23, 17-cyclopropylmethyl-3,14β-dihydroxy-4,5α-epoxy-6α-(N-methylphenylacetamido)morphinan.cndot.hydrochloride]: the ED50 in data set [1] came to 0.67 mg/kg. Moreover, in data set [2], the EC50 stood at 1610 nM. For the same molecule, the “Protective action” value in data set [3] is “clearly demonstrated action that protects nerve cells from cytotoxicity caused by glutamic acid”.

For `CN(Cc1ccccc1)[C@@H]1CC[C@@]2(O)[C@H]3Cc4ccc(O)c5c4[C@@]2(CCN3CC2CC2)[C@H]1O5` [Compound 8, 6β-(N-Benzyl)methylamino-17-cyclopropylmethyl-4,5α-epoxy-3,14β-dihydroxymorphinan], the EC50 in data set [2] was 5750 nM. The “Protective action” value in data set [3] was “clearly demonstrated action that protects nerve cells from cytotoxicity caused by glutamic acid”.
